Assay: Retinoid storage stability in stability chamber, hydroxypinacolone retinoate analysed by UPLC/UV-VIS at 360 nm
Format: physicochemical
Details: 6-month testing period, 25° C. and 40° C., within measurement accuracy
Procedure: The above samples were tested under two sets of temperature conditions. Each sample was placed in a stability chamber maintained at either room temperature (25° C.±2° C.) or accelerated (elevated) temperature (40° C.±2° C.). Each stability chamber was maintained at a relative humidity of 60%+5%. Stability of the retinoid was monitored at various time points: initially, after one month, after two months, after three months, and after six months. Assessment of the retinoid stability was conducted by removing a sample from the stability chamber and analyzing for hydroxypinacolone retinoate by UPLC/UV-VIS (Waters ACQUITY UPLC H-Class PLUS System with a photodiode array (PDA) detector). A wavelength of 360 nm was used for analyses. The measured concentrations were determined with a measurement accuracy of about +10%. The initial and subsequent concentrations are believed to deviate from the expected 0.1 wt % due to some initial degradation of the stock hydroxypinacolone retinoate.

With CC1=C(/C=C/C(C)=C/C=C/C(C)=C/C(=O)OCC(=O)C(C)(C)C)C(C)(C)CCC1 [hydroxypinacolone retinoate] the “Hydroxypinacolone retinoate concentration over the testing period” value was “remained essentially constant”.

From US20250339360A1, “COSMETIC COMPOSITIONS COMPRISING RETINOIDS AND MOISTURIZERS AND METHODS FOR STABLIZING RETINOIDS” (ELC Management LLC, priority 2024, published 2025)
